16 compounds from patent US7199131B2, “Sulfonamide and sulfamide substituted imidazoquinolines” (3M Innovative Properties Company, priority 2001, dated 2007) can be followed below.

Data set [1] has as its system tumor necrosis factor (α). Description: Cytokine Induction in Human Cells: tumor necrosis factor (α) secreted by PBMCs, ELISA. It is filed as cell-based. The settings on record: PBMC, incubated 18 to 24 hours, lowest concentration found to induce tumor necrosis factor. The text has this:
(§1) An in vitro human blood cell system was used to assess cytokine induction by compounds of the invention. Activity is based on the measurement of interferon and tumor necrosis factor (α) (IFN and TNF, respectively) secreted into culture media as described by Testerman et. al. In “Cytokine Induction by the Immunomodulators Imiquimod and S-27609”, Journal of Leukocyte Biology, 58, 365–372 (September, 1995).
(§2) Whole blood is collected by venipuncture into EDTA vacutainer tubes from healthy human donors. Peripheral blood mononuclear cells (PBMCs) are separated from whole blood by density gradient centrifugation using Histopaque®-1077 (Sigma Chemicals, St. Louis, Mo.). The PBMCs are suspended at 3–4×10^6 cells/mL in RPMI 1640 medium containing 10% fetal bovine serum, 2 mM L-glutamine and 1% penicillin/streptomycin solution (RPMI complete). The PBMC suspension is added to 48 well flat bottom sterile tissue culture plates (Costar, Cambridge, Mass. or Becton Dickinson Labware, Lincoln Park, N.J.) containing an equal volume of RPMI complete media containing test compound.
(§3) The compounds are solubilized in dimethyl sulfoxide (DMSO). The DMSO concentration should not exceed a final concentration of 1% for addition to the culture wells.
(§4) The solution of test compound is added at 60 μM to the first well containing RPMI complete and serial (three fold or ten fold) dilutions are made. The PBMC suspension is then added to the wells in an equal volume, bringing the test compound concentrations to the desired range. The final concentration of PBMC suspension is 1.5–2×10^6 cells/mL. The plates are covered with sterile plastic lids, mixed gently and then incubated for 18 to 24 hours at 37° C. in a 5% carbon dioxide atmosphere.
(§5) Following incubation the plates are centrifuged for 5–10 minutes at 1000 rpm (˜200×g) at 4° C. The cell culture supernatant is removed with a sterile polypropylene pipette and transferred to sterile polypropylene tubes. Samples are maintained at −30 to −70° C. until analysis. The samples are analyzed for interferon (α) and tumor necrosis factor (α) by ELISA
Tumor necrosis factor (α) (TNF) concentration is determined using ELISA kits available from Genzyme, Cambridge, Mass.; R&D Systems, Minneapolis, Minn.; or Pharmingen, San Diego, Calif.
(§6) The table below lists the lowest concentration found to induce interferon and the lowest concentration found to induce tumor necrosis factor for each compound.
In general terms: An ELISA detects its analyte on a solid surface through an enzyme-linked reagent.

Another data set concerns interferon (α). In words: Cytokine Induction in Human Cells: interferon (α) secreted by PBMCs, ELISA. Format: cell-based. The following applies: PBMC, incubated 18 to 24 hours, lowest concentration found to induce interferon.
Excerpt: as §1, §2, §3, §4, §5
Interferon (α) concentration is determined by ELISA using a Human Multi-Species kit from PBL Biomedical Laboratories, New Brunswick, N.J.
as §6

For orientation: minimal effective concentration means the smallest amount tested that counted as effective. A high value points to weaker potency. What is called melting point is the temperature of the solid-liquid transition. As for `CCCCc1nc2c(N)nc3ccccc3c2n1CCCCCCCCNS(=O)(=O)c1ccccc1` [Example 248, N-[8-(4-amino-2-butyl-1H-imidazo[4,5-c]quinolin-1-yl)octyl]benzenesulfonamide], the melting point was 143 to 144 °C. Moreover, the minimal effective concentration in data set [1] is 0.01 µM. The same compound registered a minimal effective concentration with interferon (α) of 0.12 µM.
In turn, `COCCc1nc2c(N)nc3ccccc3c2n1CCCNS(=O)(=O)c1ccccc1` [Example 249, N-(3-[4-amino-2-(2-methoxyethyl)-1H-imidazo[4,5-c]quinolin-1-yl]propyl)benzenesulfonamide] showed a melting point of 149 to 151 °C. In addition, the minimal effective concentration in data set [1] worked out at 1.11 µM. This compound registered a minimal effective concentration in the data set with interferon (α) of 0.01 µM.
The compound `CS(=O)(=O)NCCCCCCCCn1cnc2c(N)nc3ccccc3c21` [Example 252, N-[8-(4-amino-1H-imidazo[4,5-c]quinolin-1-yl)octyl]methanesulfonamide] came in with a melting point of 153 to 155 °C. The compound also showed a minimal effective concentration in data set [1] of 1.11 µM. In the data set with interferon (α), this compound came in with a minimal effective concentration of 0.37 µM.
`COCCc1nc2c(N)nc3ccccc3c2n1CCCNS(=O)(=O)c1ccc(C)cc1` [Example 253, N-{3-[4-amino-2-(2-methoxyethyl)-1H-imidazo[4,5-c]quinolin-1-yl]propyl}-4-methylbenzenesulfonamide]: the melting point was 189 to 191 °C. For the same compound, the minimal effective concentration in data set [1] came out at 0.12 µM. In the data set with interferon (α), this compound showed a minimal effective concentration of 0.04 µM.
For `CCCCCc1nc2c(N)nc3c(c2n1CCCCNS(C)(=O)=O)CCCC3` [Example 254, N-[4-(4-amino-2-pentyl-6,7,8,9-tetrahydro-1H-imidazo[4,5-c]quinolin-1-yl)butyl]methanesulfonamide] the same measures were 167 to 167.8 °C, 1.11 µM and 0.01 µM.
For `CCOCc1nc2c(N)nc3ccccc3c2n1CCCNS(C)(=O)=O` [Example 255, N-{3-[4-amino-2-(ethoxymethyl)-1H-imidazo[4,5-c]quinolin-1-yl]propyl}methanesulfonamide], in that order: 208.2 to 209.6 °C, 3.33 µM and 0.12 µM.
For `COCCc1nc2c(N)nc3ccccc3c2n1CC(C)(C)CNS(C)(=O)=O` [Example 256, N-{3-[4-amino-2-(2-methoxyethyl)-1H-imidazo[4,5-c]quinolin-1-yl]-2,2-dimethylpropyl}methanesulfonamide], in that order: 204 to 206 °C, 0.04 µM and 0.01 µM.
`COCCc1nc2c(N)nc3ccccc3c2n1CCCNS(=O)(=O)c1cccc2c(N(C)C)cccc12` [Example 257, N-{3-[4-amino-2-(2-methoxyethyl)-1H-imidazo[4,5-c]quinolin-1-yl]propyl}-5-(dimethylamino)naphthalene-1-sulfonamide] yielded a melting point of 210 to 215 °C. In data set [1], this compound returned a minimal effective concentration of 3.33 µM. In the data set on interferon (α), this compound came in with a minimal effective concentration of 1.11 µM.
For the compound `Cc1nc2c(N)nc3ccccc3c2n1CCCNS(C)(=O)=O` [Example 258, N-[3-(4-amino-2-methyl-1H-imidazo[4,5-c]quinolin-1-yl)propyl]methanesulfonamide], the melting point is 236 to 238 °C. In data set [1], this compound showed a minimal effective concentration of 10 µM. This compound also had a minimal effective concentration in the data set with interferon (α) of 0.37 µM.
For `COCCc1nc2c(N)nc3c(c2n1CCCNS(C)(=O)=O)CCCC3` [Example 259, N-{3-[4-amino-2-(2-methoxyethyl)-6,7,8,9-tetrahydro-1H-imidazo[4,5-c]quinolin-1-yl]propyl}methanesulfonamide] the same measures were 150 to 152 °C, 10 µM and 0.01 µM.
For `CCOCc1nc2c(N)nc3c(c2n1CCCNS(C)(=O)=O)CCCC3` [Example 260, N-{3-[4-amino-2-(ethoxymethyl)-6,7,8,9-tetrahydro-1H-imidazo[4,5-c]quinolin-1-yl]propyl}methanesulfonamide], the melting point is 212 to 214 °C. Moreover, the minimal effective concentration in data set [1] is 0.37 µM. In the data set on interferon (α), this compound returned a minimal effective concentration of 0.01 µM.
For `CS(=O)(=O)NCCCn1c(CCCOc2ccccc2)nc2c(N)nc3ccccc3c21` [Example 261, N-{3-[4-amino-2-(3-phenoxypropyl)-1H-imidazo[4,5-c]quinolin-1-yl]propyl}methanesulfonamide], the melting point lay in the range of 176 to 178 °C. The compound further had a minimal effective concentration in data set [1] of 10 µM. This compound yielded a minimal effective concentration in the data set on interferon (α) above 30 µM.
For `CS(=O)(=O)NCCCCn1c(CCCOc2ccccc2)nc2c(N)nc3ccccc3c21` [Example 262, N-{4-[4-amino-2-(3-phenoxypropyl)-1H-imidazo[4,5-c]quinolin-1-yl]butyl}methanesulfonamide] the same measures were 156.4 to 157.1 °C, 10 µM and above 30 µM.
For `CCCCc1nc2c(N)nc3ccccc3c2n1CCNS(=O)(=O)c1ccc(C)cc1` [Example 264, N-[2-(4-amino-2-butyl-1H-imidazo[4,5-c]quinolin-1-yl)ethyl]-4-methylbenzenesulfonamide] the same measures were 187 to 188 °C, 1.11 µM and 1.11 µM.
For `CCCCc1nc2c(N)nc3ccccc3c2n1CCNS(C)(=O)=O` [Example 265, N-[2-(4-amino-2-butyl-1H-imidazo[4,5-c]quinolin-1-yl)ethyl]methanesulfonamide], in that order: 210 to 211 °C, 0.04 µM and 0.01 µM.
Compound `CCCCc1nc2c(N)nc3ccccc3c2n1CCCCN1CCCS1(=O)=O` [Example 267, 2-butyl-1-[4-(1,1-dioxidoisothiazolidin-2-yl)butyl]-1H-imidazo[4,5-c]quinolin-4-amine] showed a melting point of 173 to 176 °C. Also, the minimal effective concentration in data set [1] was 0.12 µM. This compound also gave a minimal effective concentration with interferon (α) of 0.01 µM.
